In patent US11987588B2, “Modulators of the beta-3 adrenergic receptor useful for the treatment or prevention of heart failure and disorders related thereto” (Arena Pharmaceuticals, Inc., priority 2017, dated 2024) one finds IC50 data, which are given here for 10 compounds.

Chain of Beta-3 Adrenergic Receptor (P13945 whole entry, species assumed): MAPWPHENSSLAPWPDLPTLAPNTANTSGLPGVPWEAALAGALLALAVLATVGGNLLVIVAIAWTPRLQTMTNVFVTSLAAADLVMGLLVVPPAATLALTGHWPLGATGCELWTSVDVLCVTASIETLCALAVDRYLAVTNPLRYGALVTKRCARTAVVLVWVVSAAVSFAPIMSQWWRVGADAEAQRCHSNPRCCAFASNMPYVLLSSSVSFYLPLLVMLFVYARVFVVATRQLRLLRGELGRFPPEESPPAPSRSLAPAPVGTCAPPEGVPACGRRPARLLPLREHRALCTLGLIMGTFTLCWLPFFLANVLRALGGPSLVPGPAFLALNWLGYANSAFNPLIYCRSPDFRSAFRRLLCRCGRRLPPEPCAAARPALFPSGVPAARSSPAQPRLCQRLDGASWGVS

This assay has as its target Beta-3 Adrenergic Receptor (Homo sapiens (Human), UniProt P13945). The assay can be described thus: Homogeneous Time-Resolved Fluorescence (HTRF) cAMP antagonist assay, IC50 determination. The assay is classed as cell-based. The note with it: CHO-K1 cells stably expressing recombinant receptor, isoproterenol at EC90. As to the method: HTRF cAMP assays were performed according to manufacturer's instructions (Cisbio, cAMP Dynamic 2 Assay Kit; #62AM4PEJ). CHO-K1 cells stably expressing recombinant receptor were harvested and suspended in warm PBS to make a 300,000 cells/mL stock. This cell suspension was dispensed into 384 well assay plates (PerkinElmer ProxiPlate #6008280) at 5 μL per well (1500 cells/well) along with a cAMP standard curve.
Compounds were dissolved and serially diluted (5-fold) in DMSO to generate a 10-point dose response stock. The stock was then diluted 100-fold in assay buffer (PBS containing 1 mM IBMX) before a volume of 2.5 μL was added to the cells (the final, top concentration of compound in the dose-response is typically 10 or 100 μM). After a brief incubation, 2.5 μL of isoproterenol stock, prepared at a concentration 4 times its EC90 at the receptor of interest, was added to the wells. The EC90 for isoproterenol, a beta-adrenergic agonist, was determined in separate experiments using standard methods to measure agonist potencies.
Following a 1-hour incubation at room temperature, 5 μL of cAMP-D2 Reagent diluted in Lysis Buffer was added to each well followed by 5 μL of Cryptate Reagent. Plates were further incubated at room temperature for 1 hour prior to reading. Time resolved fluorescence measurements were collected on a suitable, HTRF-capable plate reader.
Counts from the plate reader were fit to the cAMP standard curve on the assay plate in order to determine cAMP concentrations in each well, and these values were used to construct dose-response curves to obtain IC50 values.
Background: TR-FRET usually uses a lanthanide donor and a delayed reading to cut background.
The term IC50 denotes the concentration at which inhibition is half-maximal. With `CCNS(=O)(=O)c1cccc(OC[C@@H](O)CNC2COC3(CCN(S(=O)(=O)c4cccc(-c5cnn(CC)c5)c4)CC3)C2)c1` (stereo partly drawn) [Compound 209, N-ethyl-3-((2S)-3-(8-(3-(1-ethyl-1H-pyrazol-4-yl)phenylsulfonyl)-1-oxa-8-azaspiro[4.5]decan-3-ylamino)-2-hydroxypropoxy)benzenesulfonamide], the IC50 turned out to be 41 nM.
As for `Cc1ccc2c(O)c(S(=O)(=O)N3CCC4(CC3)C[C@@H](NC[C@H](O)COc3cccc(S(N)(=O)=O)c3)CO4)cnc2c1` [Compound 542, 3-((S)-2-hydroxy-3-((R)-8-(4-hydroxy-7-methylquinolin-3-ylsulfonyl)-1-oxa-8-azaspiro[4.5]decan-3-ylamino)propoxy)benzenesulfonamide], the figure is 15.6 nM.
Regarding `CNS(=O)(=O)c1cccc(OC[C@@H](O)CNC2COC3(CCN(S(=O)(=O)c4ccc(NC(C)=O)cc4)CC3)C2)c1` (stereo partly drawn) [Compound 42, N-(4-(3-((S)-2-hydroxy-3-(3-(N-methylsulfamoyl)phenoxy)propylamino)-1-oxa-8-azaspiro[4.5]decan-8-ylsulfonyl)phenyl)acetamide], the IC50 was found to be 31.9 nM.
As for `CNS(=O)(=O)c1cccc(OC[C@@H](O)CN[C@H]2COC3(CCN(S(=O)(=O)c4cccc(-c5cccnc5)c4)CC3)C2)c1` [Compound 285, 3-((S)-2-hydroxy-3-((R)-8-(3-(pyridin-3-yl)phenylsulfonyl)-1-oxa-8-azaspiro[4.5]decan-3-ylamino)propoxy)-N-methylbenzenesulfonamide], the figure is 25 nM; as for `CNS(=O)(=O)c1cccc(OC[C@@H](O)CN[C@H]2COC3(CCN(S(=O)(=O)c4cnc5[nH]c(C)c(Cl)c5c4)CC3)C2)c1` [Compound 517, 3-((S)-3-((R)-8-(3-chloro-2-methyl-1H-pyrrolo[2,3-b]pyridin-5-ylsulfonyl)-1-oxa-8-azaspiro[4.5]decan-3-ylamino)-2-hydroxypropoxy)-N-methylbenzenesulfonamide], 7.74 nM; as for `CNS(=O)(=O)c1cccc(OC[C@@H](O)CN[C@H]2COC3(CCN(S(=O)(=O)c4ccc5c(c4)NC(=O)CO5)CC3)C2)c1` [Compound 279, 3-((S)-2-hydroxy-3-((R)-8-(3-oxo-3,4-dihydro-2H-benzo[b][1,4]oxazin-6-ylsulfonyl)-1-oxa-8-azaspiro[4.5]decan-3-ylamino)propoxy)-N-methylbenzenesulfonamide], 31.6 nM.
As for `CNS(=O)(=O)c1cccc(OC[C@@H](O)CNC2COC3(CCN(S(=O)(=O)c4ccc(Cl)cc4)CC3)C2)c1` (stereo partly drawn) [Compound 17, 3-((2S)-3-(8-(4-chlorophenylsulfonyl)-1-oxa-8-azaspiro[4.5]decan-3-ylamino)-2-hydroxypropoxy)-N-methylbenzenesulfonamide], the figure is 15.3 nM; as for `CNS(=O)(=O)c1cccc(OC[C@@H](O)CNC2COC3(CCN(S(=O)(=O)c4cccc(-c5ccc(N)nc5)c4)CC3)C2)c1` (stereo partly drawn) [Compound 103, 3-((2S)-3-(8-(3-(6-aminopyridin-3-yl)phenylsulfonyl)-1-oxa-8-azaspiro[4.5]decan-3-ylamino)-2-hydroxypropoxy)-N-methylbenzenesulfonamide], 10.5 nM.
As for `CNS(=O)(=O)c1cccc(OC[C@@H](O)CNC2COC3(CCN(S(=O)(=O)c4cc(C)oc4C(F)(F)F)CC3)C2)c1` (stereo partly drawn) [Compound 162, 3-((2S)-2-hydroxy-3-(8-(5-methyl-2-(trifluoromethyl)furan-3-ylsulfonyl)-1-oxa-8-azaspiro[4.5]decan-3-ylamino)propoxy)-N-methylbenzenesulfonamide], the figure is 42.6 nM.
Take `CNS(=O)(=O)c1cccc(OC[C@@H](O)CNC2COC3(CCN(S(=O)(=O)c4cc(Br)cc5c4OCC5)CC3)C2)c1` (stereo partly drawn) [Compound 260, 3-((2S)-3-(8-(5-bromo-2,3-dihydrobenzofuran-7-ylsulfonyl)-1-oxa-8-azaspiro[4.5]decan-3-ylamino)-2-hydroxypropoxy)-N-methylbenzenesulfonamide]: the IC50 was 20.3 nM.
